From US20220257491A1, “Prebiotic Oral Care Compositions and Methods” (Colgate-Palmolive Company, priority 2021, published 2022)
Several values for one entry are separate records, joined by “and”; a condition that tells them apart may be missing. Identical values can stand only once. Marks after values point to notes of the source that are not given here.

Columns and labels:
Format in all cases: cell-based
[1] = test system: F. nucleatum virulence genes; assay: Multi-species biofilm virulence gene expression, SYBR RT-qPCR: F. nucleatum; details: relative to control (=1), 2^-ΔΔCt, geometric mean n=3
Description: (§1) Biofilms are grown vertically on Calcium Deficient Hydroxyapatite (CAD-HA) disks (Hitemco Medical, Old Bethpage, USA) using the Amsterdam Active Adhesion model. Biofilms are allowed to establish during 24 h (37° C., 170 rpm) under micro-aerophilic conditions (6% O2, 7% CO2, 7% H2, 80% N2). After this 24 h, disks are rinsed 3 times a day for 3 minutes (RT, 250 rpm), for 3 consecutive days, by transferring the lid containing the disks to a new 24-well plate containing 2 mL/well of the appropriate substrate solution. As a negative control, PBS (pH 5.7) without substrate supplementation is used. After each rinsing step, disks are shortly dip-rinsed in a new 24-well plate containing fresh modified BHI medium (2 mL/well) to remove remaining substrate traces. Subsequently, the lid is transferred to another 24-well plate containing fresh modified BHI medium (2 mL/well), followed by incubation (micro-aerophilic, 37° C., 170 rpm) until the next rinsing step.
(§2) The expression of 33 virulence genes from 4 periodontal pathogens is analysed to evaluate the relative virulence of the substrate-treated biofilms. For all three substrates, virulence gene expression is determined relatively to the control, and these values are also compared between substrates when this is relevant (Tables 5a-5d).

[2] = test system: human oral keratinocytes (HOK-18A); assay: Inflammatory mediator gene expression in keratinocytes exposed to substrate-treated biofilms; details: for Fold change in inflammatory mediator gene expression: IL-1β / Fold change in inflammatory mediator gene expression: IL-6 / Fold change in inflammatory mediator gene expression: IL-8 / Fold change in inflammatory mediator gene expression: MMP-8 / Fold change in inflammatory mediator gene expression: TNF-α: relative to control (=1), geometric mean (95% C.I.) n=3
Description: Cultures of immortalized human oral keratinocytes (HOK-18A) are grown. The relative inflammatory potential of the substrate-treated multi-species biofilms is evaluated by analyzing the expression of five inflammatory mediator genes in human oral keratinocytes (HOKs) exposed to the substrate-treated biofilms. […] The IL-8 levels in the cellular supernatant are determined as well. RNA is converted to cDNA and relative expression of inflammatory mediator genes is determined as described above with respect to the cellular housekeeping gene (3-actin.
In HOKs exposed to substrate-treated (substrate concentrations of 1 M) multi-species biofilms, mostly decreases in inflammatory mediator gene expression are observed and measured via SYBR RT-qPCR, the results of which are detailed in Table 6.
All substrates are dissolved in PBS at a concentration of 1 M (upper part) or 1% (w/v) (lower part). Values between 0 and 1 represent relative downregulation, values >1 represent relative upregulation. […] For such values, statistically significant differences between two experimental conditions are marked with ‘#1’ (vs. NADM), ‘#2’ (vs. NADG), ‘#3’ (vs. D-(+)-mannose) (P<0.05).

V. parvula = assay: Multi-species biofilm composition: absolute abundance of V. parvula; details: mean±SD n=3
Description: as §1
(§3) NADM, N-acetyl-D-glucosamine (“NADG”) and D-(+)-mannose are selected to determine their effects on multi-species biofilm composition. Repeated rinsing of the biofilms with the substrates at a concentration of 1M results in a significant decrease in absolute numbers in at least four of the pathogenic bacterial species tested in the assay, compared to the control, the results of which are described in Table 1 below. Absolute abundances of bacterial species are shown as mean±SD (n=3) logarithmic values of the genome equivalents per millilitre (log(Geq/mL)).

[3] = test system: P. intermedia virulence genes; assay: Multi-species biofilm virulence gene expression, SYBR RT-qPCR: P. intermedia; details: for Fold Change in virulence gene expression: DnaJ / Fold Change in virulence gene expression: DnaK / Fold Change in virulence gene expression: ECF / Fold Change in virulence gene expression: GroES / Fold Change in virulence gene expression: HtpG / Fold Change in virulence gene expression: KpsD / Fold Change in virulence gene expression: adpc / Fold Change in virulence gene expression: clpB / Fold Change in virulence gene expression: inpA / Fold Change in virulence gene expression: phg: relative to control (=1), 2^-ΔΔCt, geometric mean n=3
Description: as §1, §2

multi-species biofilms = assay: Multi-species biofilm organic acid balances (supernatant); details: >0 production, <0 consumption, mean±SD n=3
Description: as §1
To examine the effect of NADM and the influence of the orientation and absence/presence of the N-acetyl group on organic acid production and consumption, supernatant samples from substrate-treated or untreated multi-species biofilms are analysed. […] When comparing relevant significant differences between substrate conditions, an increase in acetate production is observed for NADM compared to D-(+)-mannose (3084±174 vs. 1934±56 mg/L).

A. naeslundii = assay: Multi-species biofilm composition: absolute abundance of A. naeslundii; details: mean±SD n=3
Description: as §1, §3

S. sobrinus = assay: Multi-species biofilm composition: absolute abundance of S. sobrinus; details: mean±SD n=3
Description: as §1
(§4) NADM, N-acetyl-D-glucosamine (“NADG”) and D-(+)-mannose are selected to determine their effects on multi-species biofilm composition. […] decrease in absolute numbers in at least four of the pathogenic bacterial species tested in the assay, compared to the control, the results of which are described in Table 1 below. Absolute abundances of bacterial species are shown as mean±SD (n=3) logarithmic values of the genome equivalents per millilitre (log(Geq/mL)).

A. viscosus = assay: Multi-species biofilm composition: absolute abundance of A. viscosus; details: mean±SD n=3
Description: as §1, §4

A. actinomycetemcomitans = assay: Multi-species biofilm composition: absolute abundance of A. actinomycetemcomitans; details: mean±SD n=3
Description: as §1, §4

[4] = biofilm rinsed with substrate 1%
[5] = biofilm rinsed with substrate 1M

## CC(=O)N[C@@H]1C(O)O[C@H](CO)[C@@H](O)[C@@H]1O (stereo partly drawn) [NADM, N-acetyl-D-mannosamine]
[1]; substrate 1%
  Fold Change in virulence gene expression: ABC transp. perm.: 0.39 fold
  Fold Change in virulence gene expression: EF-G: 0.11 fold
  Fold Change in virulence gene expression: but.-coA transf.: 0.38 fold
  Fold Change in virulence gene expression: hemin receptor: 0.10 fold
  Fold Change in virulence gene expression: hemolysin: 0.55 fold
  Fold Change in virulence gene expression: ompA: 0.75 fold
  Fold Change in virulence gene expression: transposase: 0.75 fold
[1]; substrate 1M
  Fold Change in virulence gene expression: ABC transp. perm.: 2.46 fold
  Fold Change in virulence gene expression: EF-G: 1.37 fold
  Fold Change in virulence gene expression: but.-coA transf.: 0.76 fold
  Fold Change in virulence gene expression: hemin receptor: 2.81 fold
  Fold Change in virulence gene expression: hemolysin: 1.05 fold
  Fold Change in virulence gene expression: ompA: 1.27 fold
  Fold Change in virulence gene expression: transposase: 1.03 fold
[2]; [4]
  Fold change in inflammatory mediator gene expression: IL-1β: 0.83 (0.66-1.04) fold
  Fold change in inflammatory mediator gene expression: IL-6: 0.73 (0.48-1.13) fold
  Fold change in inflammatory mediator gene expression: IL-8: 1.32 (1.14-1.53) fold
  Fold change in inflammatory mediator gene expression: MMP-8: 0.62 (0.21-1.84) fold
  Fold change in inflammatory mediator gene expression: TNF-α: 0.69 (0.48-1.00) fold
[2]; [5]
  Fold change in inflammatory mediator gene expression: IL-1β: 0.59 (0.30-1.14) fold
  Fold change in inflammatory mediator gene expression: IL-6: 0.86 (0.34-2.18) fold
  Fold change in inflammatory mediator gene expression: IL-8: 0.10 (0.05-0.17)* fold
  Fold change in inflammatory mediator gene expression: MMP-8: 1.66 (0.82-3.35)* fold
  Fold change in inflammatory mediator gene expression: TNF-α: 0.73 (0.64-0.83) fold
[2]; substrate 1 M
  MMP-8 gene expression increase: 1.7 fold
V. parvula; substrate 1%(w/v) in PBS
  Absolute abundance Vp (V. parvula): 10.05 ± 0.17 log(Geq/mL)
V. parvula; substrate 1 M in PBS
  Absolute abundance Vp (V. parvula): 10.76 ± 0.09 log(Geq/mL)
[3]; substrate 1%(w/v), D-(+)-mannose for 3 genes
  Relative P. intermedia virulence gene expression, downregulation: 2.5- to 7.7 fold
[3]; substrate 1%
  Fold Change in virulence gene expression: DnaJ: 0.19 fold
  Fold Change in virulence gene expression: DnaK: 0.31 fold
  Fold Change in virulence gene expression: ECF: 0.13 fold
  Fold Change in virulence gene expression: GroES: 0.51 fold
  Fold Change in virulence gene expression: HtpG: 0.21 fold
  Fold Change in virulence gene expression: KpsD: 0.35 fold
  Fold Change in virulence gene expression: adpc: 0.21 fold
  Fold Change in virulence gene expression: clpB: 0.40 fold
  Fold Change in virulence gene expression: inpA: 0.28 fold
  Fold Change in virulence gene expression: phg: 0.26 fold
[3]; substrate 1M
  Fold Change in virulence gene expression: DnaJ: 0.15 fold
  Fold Change in virulence gene expression: DnaK: 0.70 fold
  Fold Change in virulence gene expression: ECF: 0.55 fold
  Fold Change in virulence gene expression: GroES: 0.45 fold
  Fold Change in virulence gene expression: HtpG: 0.35 fold
  Fold Change in virulence gene expression: KpsD: 0.41 fold
  Fold Change in virulence gene expression: adpc: 0.70 fold
  Fold Change in virulence gene expression: clpB: 0.40 fold
  Fold Change in virulence gene expression: inpA: 0.64 fold
  Fold Change in virulence gene expression: phg: 0.15 fold
multi-species biofilms; substrate 1%(w/v)
  acetate level in biofilm supernatant: 396 ± 11 mg/L
  butyrate level in biofilm supernatant: 1989 ± 44 mg/L
  formate level in biofilm supernatant: 3768 ± 174 mg/L
  lactate level in biofilm supernatant: 125 ± 0 mg/L
  propionate level in biofilm supernatant: 1891 ± 79 mg/L
multi-species biofilms; substrate 1 M
  butyrate level in biofilm supernatant: 541±52 mg/L and 541 ± 52*^, #2, 3 mg/L
  formate level in biofilm supernatant: 791.9 ± 138.27 mg/L and 792 ± 138 mg/L
  lactate level in biofilm supernatant: 125 ± 0 mg/L
  propionate level in biofilm supernatant: 2052 ± 54 mg/L
A. naeslundii; substrate 1%(w/v) in PBS
  Absolute abundance An (A. naeslundii): 7.60 ± 0.22 log(Geq/mL)
A. naeslundii; substrate 1 M in PBS
  Absolute abundance An (A. naeslundii): 6.73 ± 0.39 log(Geq/mL)
S. sobrinus; substrate 1%(w/v) in PBS
  Absolute abundance S. sobrinus: 5.24 ± 0.27 log(Geq/mL)
S. sobrinus; substrate 1 M in PBS
  Absolute abundance S. sobrinus: 6.05 ± 0.23 log(Geq/mL)
A. viscosus; substrate 1%(w/v) in PBS
  Absolute abundance Av (A. viscosus): 7.73 ± 0.09 log(Geq/mL)
A. viscosus; substrate 1 M in PBS
  Absolute abundance Av (A. viscosus): 8.35 ± 0.30 log(Geq/mL)
A. actinomycetemcomitans; substrate 1%(w/v) in PBS
  Absolute abundance Aa (A. actinomycetemcomitans): 9.51 ± 0.05 log(Geq/mL)
A. actinomycetemcomitans; substrate 1 M in PBS
  Absolute abundance Aa (A. actinomycetemcomitans): 7.84 ± 0.53 log(Geq/mL)
